Data published in US20110183978A1, “Phenylpyri(mi)dinylazoles” (Bayer CropScience AG, priority 2009, published 2011).
Where two headings read alike, the source gives them in different places.

Experiments:
Alternaria solani = test: Example M: in vivo test on Alternaria solani (leaf blotch disease/tomato/protective); conditions: 168 h, tomato, protective, 500 ppm active substance, assessed 7 days after inoculation, read-out: % Wirkungsgrad (activity level)
Summary of the method: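 Protective test: young tomato plants sprayed with active substance (in DMF with alkylaryl polyglycol ether emulsifier, diluted in water) at the stated dosage, then inoculated with Alternaria solani. Disease assessed 7 days after inoculation.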

Botrytis cinerea [1] = test: Example P: in vivo test on Botrytis cinerea (gray mould on bean/protective); conditions: 48 h, bean, protective, 250 ppm active substance, assessed 2 days after inoculation, read-out: % Wirkungsgrad (activity level)
Summary of the method: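 Protective test: young bean plants sprayed with the active substance preparation (emulsifier-based concentrate diluted in water) at the stated dosage. Once dry, each leaf received 2 agar pieces bearing Botrytis cinerea. Infection blotch size assessed 2 days after inoculation.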

Rhizoctonia solani = test: Example W: in vivo test on Rhizoctonia solani (sheath blight in rice/protective); conditions: 96 h, rice, protective, 250 ppm active substance, assessed 4 days after inoculation, read-out: % Activity level
Description: Solvent: 28.5 parts by weight acetone Emulsifier: 1.5 parts by weight alkylaryl polyglycol ethers For the preparation of a suitable active substance preparation, 1 part by weight of active substance is mixed with the stated quantities of solvent and emulsifier and the concentrate is diluted to the desired concentration with water. For the testing for protective activity, young rice plants are sprayed with the active substance preparation at the stated application dosage. One day after the treatment, the plants are inoculated with hyphae of Rhizoctonia solani. […] 4 days after the inoculation, the assessment takes place.

Venturia inaequalis = test: Example O: in vivo test on Venturia inaequalis (apple scab/protective); conditions: 240 h, protective, assessment 10 days after inoculation, read-out: % Wirkungsgrad
Summary of the method: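 Protective test: active substance mixed with solvent and alkylaryl polyglycol ether emulsifier, diluted with water, and sprayed on young plants at the stated dosage before Venturia inaequalis inoculation. Scab assessed 10 days after inoculation.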

Sphaerotheca fuliginea = test: Example L: in vivo test on Sphaerotheca fuliginea (powdery mildew on cucumber/protective); conditions: Podosphaera fuliginea, 168 h, cucumber, protective, assessment 7 days after inoculation, read-out: % Wirkungsgrad
Summary of the method: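 Young cucumber plants sprayed at stated dosage with compound in DMF/alkylaryl polyglycol ether emulsifier diluted in water; inoculated with S. fuliginea spores one day later. Kept in greenhouse at 70% relative humidity, 23° C; protective activity assessed 7 days after inoculation.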

Septoria tritici = test: Example R: in vivo test on Septoria tritici (leaf blotch in wheat/protective); conditions: Zymoseptoria tritici, 504 h, wheat, protective, 1000 ppm active substance, assessed 21 days after inoculation, read-out: % Wirkungsgrad (activity level)
Description: Solvent: 49 parts by weight N,N-dimethylacetamide Emulsifier: 1 part by weight alkylaryl polyglycol ethers For the preparation of a suitable active substance preparation, 1 part by weight of active substance is mixed with the stated quantities of solvent and emulsifier and the concentrate is diluted to the desired concentration with water. For the testing for protective activity, young plants are sprayed with the active substance preparation at the stated application dosage. After drying of the spray coating, the plants are sprayed with a spore suspension of Septoria tritici. […] 21 days after the inoculation, the assessment takes place.

Plasmopara viticola = test: Example N: in vivo test on Plasmopara viticola (downy mildew, vine/protective); conditions: 144 h, vine, protective, assessment 6 days after inoculation, read-out: % Wirkungsgrad
Description: Emulsifier: 1 part by weight alkylaryl polyglycol ethers For the preparation of a suitable active substance preparation, 1 part by weight of active substance is mixed with the stated quantities of solvent and emulsifier and the concentrate is diluted to the desired concentration with water. For the testing for protective activity, young plants are sprayed with the active substance preparation at the stated application dosage. […] The plants are then moistened and placed in an incubation cabin for 1 day. 6 days after the inoculation, the assessment takes place.

Leptosphaeria nodorum = test: Example Q: in vivo test on Leptosphaeria nodorum (glume blotch in wheat/protective); conditions: Parastagonospora nodorum, 192 h, wheat, protective, assessment 8 days after inoculation, read-out: % Wirkungsgrad
Description: Solvent: 49 parts by weight N,N-dimethylacetamide Emulsifier: 1 part by weight alkylaryl polyglycol ethers For the preparation of a suitable active substance preparation, 1 part by weight of active substance is mixed with the stated quantities of solvent and emulsifier and the concentrate is diluted to the desired concentration with water. For the testing for protective activity, young plants are sprayed with the active substance preparation at the stated application dosage. After drying of the spray coating, the plants are sprayed with spores with a spore suspension of Leptosphaeria nodorum. […] 8 days after the inoculation, the assessment takes place.

Fusarium graminearum [2] = test: microbe, parasite or virus in culture; assay type: cell-based
Fusarium proliferatum = test: Example I: production of fumonisin FB1 by Fusarium proliferatum (microtitre plates); assay type: cell-based; conditions: 120 h
Aspergillus parasiticus = test: microbe, parasite or virus in culture; assay type: cell-based; conditions: 168 h
Fusarium graminearum [3] = test: whole plant or invertebrate; assay type: in vivo; conditions: in Hordeum vulgare, 120 h, read-out: % Wirkungsgrad (activity level)
[4] = system: Fusarium nivale (var. majus); test: whole plant or invertebrate; assay type: in vivo; conditions: Microdochium nivale, in Triticum aestivum, 120 h, read-out: % Wirkungsgrad (activity level)
[5] = system: Mycosphaerella graminicola; test: Example G: in vivo test on Mycosphaerella graminicola (wheat leaf blotch disease); conditions: Zymoseptoria tritici, wheat plants sprayed 24 hours before inoculation, scored after 21 to 28 days, read-out: % Wirkungsgrad
Description: In Vivo Test on Mycosphaerella Graminicola (Wheat Leaf Blotch Disease) An aqueous suspension of the active substance was prepared by homogenization of a mixture of acetone/Tween/dimethyl sulphoxide and subsequent dilution with water to the desired concentration. Wheat plants (variety: Scipion) are sown in cultivation dishes on a peat-pozzolanic earth substrate (50/50) at 12° C. and sprayed at the first-leaf stage (10 cm size) with the aqueous suspension described above. As a control, plants are sprayed with an aqueous solution with no active substance. After 24 hours the plants are inoculated by spraying with an aqueous suspension of Mycosphaerella graminicola spores (500,000 spores per ml). The spores are derived from a 7 day-old culture. […] After 21 to 28 days they are scored in comparison with the control plants.

Botrytis cinerea [6] = test: Example B: in vivo test on Botrytis cinerea (grey mould on cucumbers); conditions: cucumber plants sprayed 24 hours before inoculation, scored after 5-7 days, read-out: % Wirkungsgrad
Description: In Vivo Test on Botrytis Cinerea (Grey Mould on Cucumbers) An aqueous suspension of the active substance was prepared by homogenization of a mixture of acetone/Tween/dimethyl sulphoxide and subsequent dilution with water to the desired concentration. Cucumber plants (variety: Vert petit de Paris) are sown in cultivation dishes on a peat-pozzolanic earth substrate (50/50) at 18-20° C. and sprayed at the cotyledon stage Z11 with the aqueous suspension described above. As a control, plants are sprayed with an aqueous solution with no active substance. […] The spores are derived from a 15 day-old culture which are suspended in the following nutrient solution: • 20 g/l gelatine • 50 g/l D-fructose • 2 g/l NH4NO3 • 1 g/l KH2PO4 The inoculated cucumber plants are kept for 5-7 days in a climatic chamber at […] After 5-7 days they are scored in comparison with the control plants.

[7] = 72 h, read-out: % Inhibition des Pilzwachstums bei 50 μM
[8] = 168 h, read-out: % Inhibition der DON/AcDON produktion bei 50 μM
[9] = Fusarium proliferatum growth, OD 620, 5 days, read-out: % Inhibition des Pilzwachstums bei 50 μM
[10] = Fusarium proliferatum, 5 days at 20° C., HPLC-MS/MS, read-out: % Inhibition der FB1 produktion bei 50 μM
[11] = 50 μM, 7 days at 20° C., read-out: Inhibition der Aflatoxin produktion bei 50 μM
[12] = read-out: % Inhibition des Pilzwachstums bei 50 μM
[13] = LogPA (logP of the stated pure compound or, in a mixture, of the main isomer, 1-substituted 3-aryl-1H-pyrazole)

Structure (SMILES)	pest or weed control at 500 ppm (Alternaria solani) [%]	pest or weed control at 250 ppm (Botrytis cinerea [1]) [%]	pest or weed control at 250 ppm (Rhizoctonia solani) [%]	pest or weed control at 100 ppm (Venturia inaequalis) [%]	pest or weed control at 500 ppm (Sphaerotheca fuliginea) [%]	chromatographic logP (physchem; LogPA)	pest or weed control at 1000 ppm (Septoria tritici) [%]	pest or weed control at 100 ppm (Plasmopara viticola) [%]	pest or weed control at 1000 ppm (Leptosphaeria nodorum) [%]	inhibition at 50 µM (Fusarium graminearum [2]; [7]) [%]	inhibition at 50 µM (Fusarium graminearum [2]; [8]) [%]	inhibition at 50 µM (Fusarium proliferatum; [9]) [%]	inhibition at 50 µM (Fusarium proliferatum; [10]) [%]	inhibition at 50 µM (Aspergillus parasiticus; [11]) [%]	inhibition at 50 µM (Aspergillus parasiticus; [12]) [%]	chromatographic logP (physchem; [13])	pest or weed control at 1000 ppm (Fusarium graminearum [3]) [%]	pest or weed control at 1000 ppm [4] [%]	pest or weed control at 500 ppm [5] [%]	pest or weed control at 500 ppm (Botrytis cinerea [6]) [%]
CC(C)Cn1cc(-c2ccnc(NC(C)C)n2)c(-c2ccc(F)cc2)n1 [Compound 174]	100	80	93	100	100	2.39	90	70	93											
CCC(=O)Nc1cc(-c2cn(CC(C)C)nc2-c2ccc(F)cc2)ccn1 [Compound 155]	100	99			95					97	100	97	100	100	100	2.51	88			
O=C(Nc1cc(-c2cn(CC3CC3)nc2-c2ccc(F)cc2)ccn1)C1CC1 [Compound 224]	70	99		71	99	2.29	100			100	92	99	100				100	100		
COCCn1cc(-c2ccnc(NC(=O)Cc3ccccc3)c2)c(-c2ccc(F)cc2)n1 [Compound 212]	95	98		85	96	2.6	71	83	71									75		
CCn1cc(-c2ccnc(NC(=O)COC)c2)c(-c2ccc(F)cc2)n1 [Compound 203]	93				95	2.2				100	100	99	100	100	100					
Fc1cccc(F)c1-c1nn(C2CCC2)cc1-c1ccncc1 [Compound 8]																1.56			92	94
CC(c1cnc(Cl)s1)n1cc(-c2ccncc2)c(-c2ccc(F)cc2)n1 (stereo not shown) [Compound 176]	100		97			1.82														
N#CCCn1cc(-c2ccncc2)c(-c2ccc(F)cc2)n1 [Compound 146]	100				95					97	100	41	100	100	99	0.81				
CC(C)CC(=O)Nc1cc(-c2cn(CC(F)F)nc2-c2ccc(F)cc2)ccn1 [Compound 238]	94	93		98	100	2.63		88									92	75		
CC(c1cccc(Cl)c1)n1cc(-c2ccncc2)c(-c2ccc(F)cc2)n1 (stereo not shown) [Compound 101]			95													2.17				
CCC(C)n1cc(-c2ccnc(NC(=O)C(C)C)c2)c(-c2ccc(F)cc2)n1 (stereo not shown) [Compound 157]	94	78		94	100		100			100	100					2.82	100	88		
CCC(C)n1cc(-c2ccnc(NC(=O)C3CC3)c2)c(-c2ccc(F)cc2)n1 (stereo not shown) [Compound 167]		100		89	100	2.56			92	100	99						100	100		
CCC(C)n1cc(-c2ccnc(NC(=O)CC3CC3)c2)c(-c2ccc(F)cc2)n1 (stereo not shown) [Compound 159]	94	98		97	97		100			102	99					3	100	75		
O=C(Nc1cc(-c2cn(CC(F)F)nc2-c2ccc(F)cc2)ccn1)C1CCC1 [Compound 240]	88	99		96	96	2.42	75	90										75		
